Calls of active or inactive are those of the source. No cut-off for these calls is given here.
Assays:
NCI-H226 [1] = assay: Antiproliferative activity against YAP-dependent human NCI-H226 cells assessed as efficacy incubated for 4 days by CellTiter-Glo 2.0 cell viability assay relative to control; type: functional; conditions: time 4 day
MSTO-211H [2] = assay: Antiproliferative activity against YAP-dependent human MSTO-211H cells incubated for 4 days by CyQuant assay; type: functional, cell-based; conditions: 96 h
NCI-H226 [3] = assay: Antitumor activity against human NCI-H226 cells xenografted in female CEA BRG mouse model assessed as reduction in tumor volume administered orally once daily for 31 days; type: functional; conditions: dose 3-30 mg/kg, route po, time 31.0 day
NCI-H226 [4] = assay: Antiproliferative activity against YAP-dependent human NCI-H226 cells incubated for 4 days by CellTiter-Glo 2.0 cell viability assay; type: functional, cell-based; conditions: NCI-H226, 96 h
NCI-H226 [5] = assay: Downregulation of CYR61 gene expression in human NCI-H226 cells incubated for 6 to 24 hrs by qPCR analysis; type: functional, cell-based; conditions: time lower 6.0 hrs, time upper […]
CAL-27 [6] = assay: Antiproliferative activity against YAP-dependent human CAL-27 cells incubated for 4 days by CyQuant assay; type: functional, cell-based; conditions: CAL-27, 96 h
NCI-H226 [7] = assay: Downregulation of CTGF gene expression in human NCI-H226 cells incubated for 6 to 24 hrs by qPCR analysis; type: functional, cell-based; conditions: time lower 6.0 hrs, time upper […]
[8] = Inhibition of CTGF expression in human NCI-H226 cells incubated for 24 hrs by qPCR analysis; type: functional, cell-based; conditions: NCI-H226, 24 h
SK-HEP1 [9] = assay: Antiproliferative activity against YAP-dependent human SK-HEP1 cells assessed as efficacy incubated for 4 days by CyQuant assay relative to control; type: functional; conditions: time 4 day
Detroit 562 [10] = assay: Antiproliferative activity against YAP-dependent human Detroit 562 cells assessed as efficacy incubated for 4 days by CyQuant assay relative to control; type: functional; conditions: time 4 day
SK-HEP1 [11] = assay: Antiproliferative activity against YAP-dependent human SK-HEP1 cells incubated for 4 days by CyQuant assay; type: functional, cell-based; conditions: SK-HEP1, 96 h
Detroit 562 [12] = assay: Antiproliferative activity against YAP-dependent human Detroit 562 cells incubated for 4 days by CyQuant assay; type: functional, cell-based; conditions: Detroit 562, 96 h
[13] = Inhibition of CYR61 expression in human NCI-H226 cells incubated for 24 hrs by qPCR analysis; type: functional, cell-based; conditions: NCI-H226, 24 h
NCI-H226 [14] = assay: Antitumor activity against human NCI-H226 cells xenografted in female CEA BRG mouse model assessed as reduction in tumor volume at 15 mg/kg, po administered twice daily for 31 days; type: functional, organism-based; conditions: time 31.0 day
NCI-H292 [15] = assay: Antiproliferative activity against YAP-dependent human NCI-H292 cells assessed as efficacy incubated for 4 days by CyQuant assay relative to control; type: functional; conditions: time 4 day
CAKI-1 [16] = assay: Antiproliferative activity against YAP-dependent human CAKI-1 cells incubated for 4 days by CyQuant assay; type: functional, cell-based; conditions: CAKI-1, 96 h
CAKI-1 [17] = assay: Antiproliferative activity against YAP-dependent human CAKI-1 cells assessed as efficacy incubated for 4 days by CyQuant assay relative to control; type: functional; conditions: time 4 day
RL95-2 [18] = assay: Antiproliferative activity against YAP-dependent human RL95-2 cells assessed as efficacy incubated for 4 days by CyQuant assay relative to control; type: functional; conditions: time 4 day
[19] = Inhibition of TEAD(unknown origin)/YAP protein-protein interaction transfected in human SK-HEP1 cells incubated for 24 hrs by NanoLuc luciferase reporter assay; type: cell-based
NCI-H292 [20] = assay: Antiproliferative activity against YAP-dependent human NCI-H292 cells incubated for 4 days by CyQuant assay; type: functional, cell-based; conditions: NCI-H292, 96 h
RL95-2 [21] = assay: Antiproliferative activity against YAP-dependent human RL95-2 cells incubated for 4 days by CyQuant assay; type: functional, cell-based; conditions: RL95-2, 96 h
CAL-27 [22] = assay: Antiproliferative activity against YAP-dependent human CAL-27 cells assessed as efficacy incubated for 4 days by CyQuant assay relative to control; type: functional; conditions: time 4 day
MSTO-211H [23] = assay: Antiproliferative activity against YAP-dependent human MSTO-211H cells assessed as efficacy incubated for 4 days by CyQuant assay relative to control; type: functional; conditions: time 4 day
[24] = target: Transcriptional enhancer factor TEF-1 (Homo sapiens) (UniProt P28347); assay: Inhibition of P-FLAG-tagged TEAD1 palmitoylation (unknown origin) transfected in HEK293 cells at 0.001 to 10 uM incubated for 6 hrs by Western blot analysis; type: cell-based; conditions: dose 0.001-10 µM
CAKI-2 = assay: Antiproliferative activity against YAP-dependent human CAKI-2 cells incubated for 4 days by CyQuant assay; type: functional, cell-based; conditions: CAKI-2, 96 h
NCI-H226 [25] = assay: Antitumor activity against human NCI-H226 cells xenografted in female CEA BRG mouse model assessed as reduction in tumor volume at 37.5 to 75 mg/kg, po administered once daily for 31 days; type: functional, organism-based; conditions: dose 37.5-75 mg/kg, time 31.0 day

Sequence of Transcriptional enhancer factor TEF-1 (Homo sapiens) (P28347 whole entry): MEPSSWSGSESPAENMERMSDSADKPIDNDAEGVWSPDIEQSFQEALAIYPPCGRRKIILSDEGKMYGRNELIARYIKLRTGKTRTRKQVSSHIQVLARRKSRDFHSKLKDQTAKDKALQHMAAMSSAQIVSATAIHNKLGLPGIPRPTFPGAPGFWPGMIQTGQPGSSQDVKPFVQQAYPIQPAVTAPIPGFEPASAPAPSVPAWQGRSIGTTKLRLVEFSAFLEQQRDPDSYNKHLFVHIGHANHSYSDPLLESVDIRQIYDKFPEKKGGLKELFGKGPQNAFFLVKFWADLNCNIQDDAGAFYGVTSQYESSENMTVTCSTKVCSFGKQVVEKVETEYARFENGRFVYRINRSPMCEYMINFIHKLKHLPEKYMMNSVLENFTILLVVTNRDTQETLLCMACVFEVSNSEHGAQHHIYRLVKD

For Cn1nc2c3cc(C(=O)N4CC[C@H](O)C4)ccc3n(-c3ccc(C(F)(F)F)cc3)c2n1, the Efficacy (NCI-H226 [1]) was 98%, the IC50 (MSTO-211H [2]) was 0.1 µM and the Activity (NCI-H226 [3]) was “Dose-dependent-effect”. For the same compound, the IC50 (NCI-H226 [4]) was 0.059 µM, the Activity (NCI-H226 [5]) was “Active” and the IC50 (CAL-27 [6]) was 11 µM. The Activity (NCI-H226 [7]) was “Active”, the IC50 [8] was 0.122 µM and the Efficacy (SK-HEP1 [9]) was 122%. For the same compound, the Efficacy (Detroit 562 [10]) was 97%, the IC50 (SK-HEP1 [11]) was 11 µM and the IC50 (Detroit 562 [12]) was 16 µM. The IC50 [13] was 0.122 µM, the Activity (NCI-H226 [14]) was “Active” and the Efficacy (NCI-H292 [15]) was 73%. The IC50 (CAKI-1 [16]) was 5 µM, the Efficacy (CAKI-1 [17]) was 92% and the Efficacy (RL95-2 [18]) was 103%. The IC50 [19] was 0.051 µM, the IC50 (NCI-H292 [20]) was 0.3 µM and the IC50 (RL95-2 [21]) was 9 µM. The Efficacy (CAL-27 [22]) was 102%, the Efficacy (MSTO-211H [23]) was 51% and the inhibition [24] was “Active”. The IC50 (CAKI-2) was over 30 µM and the Activity (NCI-H226 [25]) was “Active”.
